Assay results as given in US20250147039A1, “Compounds for complexation of rare earth elements and/or s-, p-, d- block metals, their coordination compounds, peptide conjugates, method of their preparation and use thereof” (USTAV ORGANICKE CHEMIE A BIOCHEMIE AV CR V.V.I., priority 2021, published 2025).

Legend:
[1] = Formation of 1,5-cz-[M(Lig)] from Lig and M^III ions (metal dependent click-zip) (Charts 4, 5); format: physicochemical; settings: MOPS/NaOH buffer pH 7.0, TD728, TD827 in 50% i-PrOH; for conversion to 1,5-cz-[M(Lig)], Y^III: TD714 sum of two diastereoisomers
[2] = pH dependent formation of 1,5- and 1,4-cz-Lig isomers from Lig (pH dependent click-zip) (Chart 13); format: physicochemical
[3] = Alkali metal dependent formation of 1,5-cz-Lig and 1,4-cz-Lig isomers from Lig at pH 10.2 (Chart 14); format: physicochemical; settings: Borate/(M^I)2CO3 buffer pH 10.2
[4] = Formation of 1,5-cz-[Ln(Lig)] from Lig and Ln^III ions (metal dependent click-zip), MOPS/NaOH buffer pH 7.0, analytical HPLC (Charts 1, 2); settings: MOPS/NaOH buffer pH 7.0
[5] = A: 1 hour at 80° C., 0.1M HClO4 (pH ~1)
[6] = A: 1 hour at 80° C., 1.0M HClO4 (pH ~0)
[7] = A: 1 hour at 80° C., pH 2.2, 50 mM aq. buffer
[8] = A: 1 hour at 80° C., pH 3.0, 50 mM aq. buffer
[9] = A: 1 hour at 80° C., pH 3.8, 50 mM aq. buffer
[10] = A: 1 hour at 80° C., pH 4.6, 50 mM aq. buffer
[11] = A: 1 hour at 80° C., pH 5.4, 50 mM aq. buffer
[12] = A: 1 hour at 80° C., pH 6.2, 50 mM aq. buffer
[13] = A: 1 hour at 80° C., pH 7.0, 50 mM aq. buffer
[14] = A: 1 hour at 80° C., pH 8.6, 50 mM aq. buffer
[15] = A: 1 hour at 80° C., pH 9.4, 50 mM aq. buffer
[16] = A: 1 hour at 80° C., pH 10.2, 50 mM aq. buffer
[17] = B: 1 day at 80° C., 0.1M HClO4 (pH ~1)
[18] = B: 1 day at 80° C., 1.0M HClO4 (pH ~0)
[19] = B: 1 day at 80° C., pH 2.2, 50 mM aq. buffer
[20] = B: 1 day at 80° C., pH 3.0, 50 mM aq. buffer
[21] = B: 1 day at 80° C., pH 3.8, 50 mM aq. buffer
[22] = B: 1 day at 80° C., pH 4.6, 50 mM aq. buffer
[23] = B: 1 day at 80° C., pH 5.4, 50 mM aq. buffer
[24] = B: 1 day at 80° C., pH 6.2, 50 mM aq. buffer
[25] = B: 1 day at 80° C., pH 7.0, 50 mM aq. buffer
[26] = B: 1 day at 80° C., pH 8.6, 50 mM aq. buffer
[27] = B: 1 day at 80° C., pH 9.4, 50 mM aq. buffer
[28] = B: 1 day at 80° C., pH 10.2, 50 mM aq. buffer
[29] = B: 1 day at 80° C., visible analyte free precipitate

## C#CCNC(=O)CN1CCN(CC(=O)O)CCN(Cc2cc(-c3ccccc3)cc(CN=[N+]=[N-])n2)CCN(CC(=O)O)CC1 [TD425]
[1]; 1 week at 80° C.
  conversion to 1,5-cz-[M(Lig)], Sc^III: 0%
  conversion to 1,5-cz-[M(Lig)], Y^III: 0%
[1]; 1 hour at 80° C.
  conversion to 1,5-cz-[M(Lig)], Sc^III: 0%
  conversion to 1,5-cz-[M(Lig)], Y^III: 0%
[2]; [5]
  conversion to 1,4-cz-Lig isomer: 0%
  conversion to 1,5-cz-Lig isomer: 13%
[2]; [6]
  conversion to 1,4-cz-Lig isomer: 0%
  conversion to 1,5-cz-Lig isomer: 13%
[2]; [7]
  conversion to 1,4-cz-Lig isomer: 0%
  conversion to 1,5-cz-Lig isomer: 13%
[2]; [8]
  conversion to 1,4-cz-Lig isomer: 0%
  conversion to 1,5-cz-Lig isomer: 10%
[2]; [9]
  conversion to 1,4-cz-Lig isomer: 0%
  conversion to 1,5-cz-Lig isomer: 3%
[2]; [10]
  conversion to 1,4-cz-Lig isomer: 0%
  conversion to 1,5-cz-Lig isomer: 1%
[2]; [11]
  conversion to 1,4-cz-Lig isomer: 0%
  conversion to 1,5-cz-Lig isomer: 1%
[2]; [12]
  conversion to 1,4-cz-Lig isomer: 0%
  conversion to 1,5-cz-Lig isomer: 0%
[2]; [13]
  conversion to 1,4-cz-Lig isomer: 0%
  conversion to 1,5-cz-Lig isomer: 0%
[2]; [14]
  conversion to 1,4-cz-Lig isomer: 0%
  conversion to 1,5-cz-Lig isomer: 0%
[2]; [15]
  conversion to 1,4-cz-Lig isomer: 0%
  conversion to 1,5-cz-Lig isomer: 1%
[2]; [16]
  conversion to 1,4-cz-Lig isomer: 0%
  conversion to 1,5-cz-Lig isomer: 1%
[2]; [17]
  conversion to 1,4-cz-Lig isomer: 0%
  conversion to 1,5-cz-Lig isomer: 90%
[2]; [18]
  conversion to 1,4-cz-Lig isomer: 0%
  conversion to 1,5-cz-Lig isomer: 88%
[2]; [19]
  conversion to 1,4-cz-Lig isomer: 0%
  conversion to 1,5-cz-Lig isomer: 93%
[2]; [20]
  conversion to 1,4-cz-Lig isomer: 0%
  conversion to 1,5-cz-Lig isomer: 89%
[2]; [21]
  conversion to 1,4-cz-Lig isomer: 0%
  conversion to 1,5-cz-Lig isomer: 57%
[2]; [22]
  conversion to 1,4-cz-Lig isomer: 0%
  conversion to 1,5-cz-Lig isomer: 15%
[2]; [23]
  conversion to 1,4-cz-Lig isomer: 0%
  conversion to 1,5-cz-Lig isomer: 6%
[2]; [24]
  conversion to 1,4-cz-Lig isomer: 1%
  conversion to 1,5-cz-Lig isomer: 6%
[2]; [25]
  conversion to 1,4-cz-Lig isomer: 4%
  conversion to 1,5-cz-Lig isomer: 8%
[2]; [26]
  conversion to 1,4-cz-Lig isomer: 5%
  conversion to 1,5-cz-Lig isomer: 10%
[2]; [27]
  conversion to 1,4-cz-Lig isomer: 4%
  conversion to 1,5-cz-Lig isomer: 11%
[2]; [28]
  conversion to 1,4-cz-Lig isomer: 2%
  conversion to 1,5-cz-Lig isomer: 12%
[3]; A: 1 hour at 80° C.
  conversion to 1,4-cz-Lig isomer, Cs^I: 1%
  conversion to 1,4-cz-Lig isomer, K^I: 1%
  conversion to 1,4-cz-Lig isomer, Li^I: 0%
  conversion to 1,4-cz-Lig isomer, Na^I: 0%
  conversion to 1,4-cz-Lig isomer, Rb^I: 1%
  conversion to 1,5-cz-Lig isomer, Cs^I: 1%
  conversion to 1,5-cz-Lig isomer, K^I: 0%
  conversion to 1,5-cz-Lig isomer, Li^I: 0%
  conversion to 1,5-cz-Lig isomer, Na^I: 1%
  conversion to 1,5-cz-Lig isomer, Rb^I: 1%
[3]; B: 1 day at 80° C.
  conversion to 1,4-cz-Lig isomer, Cs^I: 10%
  conversion to 1,4-cz-Lig isomer, K^I: 10%
  conversion to 1,4-cz-Lig isomer, Na^I: 1%
  conversion to 1,4-cz-Lig isomer, Rb^I: 10%
  conversion to 1,5-cz-Lig isomer, Cs^I: 11%
  conversion to 1,5-cz-Lig isomer, K^I: 10%
  conversion to 1,5-cz-Lig isomer, Na^I: 9%
  conversion to 1,5-cz-Lig isomer, Rb^I: 10%
[3]; [29]
  conversion to 1,4-cz-Lig isomer, Li^I: 0%
  conversion to 1,5-cz-Lig isomer, Li^I: 2%
[4]; after 1 week at 80° C.
  conversion to 1,5-cz-[Ln(Lig)], Ce^III: 0%
  conversion to 1,5-cz-[Ln(Lig)], Dy^III: 0%
  conversion to 1,5-cz-[Ln(Lig)], Er^III: 0%
  conversion to 1,5-cz-[Ln(Lig)], Eu^III: 0%
  conversion to 1,5-cz-[Ln(Lig)], Gd^III: 0%
  conversion to 1,5-cz-[Ln(Lig)], Ho^III: 0%
  conversion to 1,5-cz-[Ln(Lig)], La^III: 0%
  conversion to 1,5-cz-[Ln(Lig)], Lu^III: 0%
  conversion to 1,5-cz-[Ln(Lig)], Nd^III: 0%
  conversion to 1,5-cz-[Ln(Lig)], Pr^III: 0%
  conversion to 1,5-cz-[Ln(Lig)], Sm^III: 0%
  conversion to 1,5-cz-[Ln(Lig)], Tb^III: 0%
  conversion to 1,5-cz-[Ln(Lig)], Tm^III: 0%
  conversion to 1,5-cz-[Ln(Lig)], Yb^III: 0%
[4]; after 1 hour at 80° C.
  conversion to 1,5-cz-[Ln(Lig)], Ce^III: 0%
  conversion to 1,5-cz-[Ln(Lig)], Dy^III: 0%
  conversion to 1,5-cz-[Ln(Lig)], Er^III: 0%
  conversion to 1,5-cz-[Ln(Lig)], Eu^III: 0%
  conversion to 1,5-cz-[Ln(Lig)], Gd^III: 0%
  conversion to 1,5-cz-[Ln(Lig)], Ho^III: 0%
  conversion to 1,5-cz-[Ln(Lig)], La^III: 0%
  conversion to 1,5-cz-[Ln(Lig)], Lu^III: 0%
  conversion to 1,5-cz-[Ln(Lig)], Nd^III: 0%
  conversion to 1,5-cz-[Ln(Lig)], Pr^III: 0%
  conversion to 1,5-cz-[Ln(Lig)], Sm^III: 0%
  conversion to 1,5-cz-[Ln(Lig)], Tb^III: 0%
  conversion to 1,5-cz-[Ln(Lig)], Tm^III: 0%
  conversion to 1,5-cz-[Ln(Lig)], Yb^III: 0%
